# Values quoted from earlier work in patent US7887828B2, “Dual action organic formulation to control two stages of insect pests” (ISCA Technologies, Inc., priority 2006, dated 2011).
# Key:
# [1] = tested on: gypsy moth larvae; details: 3-day exposure; 13-day evaluation; 2nd instar larvae; treated red oak leaf disks
# [2] = tested on: gypsy moth larvae
# [3] = tested on: gypsy moth larvae; details: 16 hours after a 2 minute crawling exposure to glass coated with a 4 mg/litre solution
# [4] = tested on: mammalian and avian species; details: as indicated by DAS
substance,measurement,setting,value
spinosad,LC50,[1],0.0015 mg AI/cm2
same,larval populations reduced,"[2]; 3±50 mg/litre applied to run-off, ornamental style applications",95±100%
same,population reduction,[2]; application rate of 0.75 mg/litre,large population reductions
same,concentrations that effectively controlled 2nd instar larvae,"[2]; applied to foliage to run-off, laboratory potted red oak seedlings and field 4 m-tall birch trees",3 to 50 mg/L
same,treated larvae paralyzed,[3],50%
same,toxicity to mammalian and avian species,[4],little or no toxicity
